Measurements published in patent US9028845B2, “Chimeric immunomodulatory compounds and methods of using the same-IV” (Dynavax Technologies Corporation, priority 2001, dated 2015).

Key:
PBMCs = assay: Human PBMC proliferation assay (3H-thymidine incorporation); format: cell-based; details: Experiment A; for mean cpm: 2 μg/ml
mouse splenocytes = assay: Mouse splenocyte cytokine secretion (IL-6, IL-12, IFN by ELISA); format: cell-based, BALB/c mice; details: 24 h
Experimental: Polynucleotides and chimeric compounds were tested for immunostimulatory activity on mouse splenocytes. Immunostimulation was assessed by measurement of cytokine secretion into the culture media. Cytokine levels in the culture supernatant were determined by enzyme-linked immunosorbent assay (ELISA) tests.
Cells were isolated and prepared using standard techniques. Spleens of 8 to 20 week-old BALB/c mice were harvested and the splenocytes isolated using standard teasing and treatment with ACK lysing buffer from BioWhittaker, Inc. Four spleens were pooled in this experiment. Isolated cells were washed in RPMI 1640 media supplemented with 2% heat-inactivated fetal calf serum (FCS), 50 μM 2-mercaptoethanol, 1% penicillin-streptomycin, and 2 mM L-glutamine and resuspended at approximately […] in 10% FCS/RPMI (RPMI 1640 media with 10% heat-inactivated FCS, 50 μM 2-mercaptoethanol, 1% penicillin-streptomycin, and 2 mM L-glutamine).
Cell cultures were set up in triplicate with approximately 7×10^5 cells/well in a 96-well flat microtiter plate in 100 μl 10% FCS/RPMI with the cells allowed to rest for at lest 1 hour after plating. The indicated test compounds were incubated (at the indicated concentrations) for 24 hours at 37° C. Cell supernatants were harvested and frozen at −80° C. Cytokine production by the cells was determined by ELISAs, as shown in 19.

CD19+ B cells = assay: Human B cell proliferation assay (3H-thymidine incorporation); details: 2 μg/ml
mice = assay: Serum cytokines (IL-12 p40, IL-6, TNF-α) after subcutaneous injection in mice; format: in vivo; details: 20 ug subcutaneous, blood 2 hours later
Experimental: Blood was collected 2 hours later. For the LPS positive control group, mice were injected intraperitoneally with a 200 ul volume, and blood was collected 1.5 hours later (i.e., at the peak of LPS induced TNF-α activity). The blood was clotted and the serum was prepared and stored at −80° C. until assayed. Serum cytokines were assayed using Biosource cytoscreen kits for TNF-α and Pharmingen antibody pairs for mIL-6 and mIL-12. All samples were assayed in duplicate.

[1] = B cells, Donor 146, Experiment A
[2] = B cells, Donor 147, Experiment A
[3] = B cells, donor 194, Experiment B

Substance: 5′-TGACTGTGAACGTTCGAGATGA-3′ (SEQ ID NO: 2) [Compound P-6, reference compound]
- cpm1 (PBMCs; Donor 146, 2 μg/ml): 22067 cpm
- cpm2 (PBMCs; Donor 146, 2 μg/ml): 23740 cpm
- cpm3 (PBMCs; Donor 146, 2 μg/ml): 28099 cpm
- mean cpm (PBMCs; Donor 146 mean): 24635 cpm
- cpm1 (PBMCs; Donor 147, 2 μg/ml): 26436 cpm
- cpm2 (PBMCs; Donor 147, 2 μg/ml): 23830 cpm
- cpm3 (PBMCs; Donor 147, 2 μg/ml): 17531 cpm
- mean cpm (PBMCs; Donor 147 mean): 22599 cpm
- mean of both (PBMCs; mean of Donors 146 and 147, 2 μg/ml): 23617 cpm
- IFN (mouse splenocytes; dose 0.1 μg/ml): 187
- IL-12 (mouse splenocytes; dose 0.1 μg/ml): 1665
- IFN (mouse splenocytes; dose 1.0 μg/ml): 2175
- IL-6 (mouse splenocytes; dose 1.0 μg/ml): 5760
- IL-12 (mouse splenocytes; dose 1.0 μg/ml): 4565
- IFN (mouse splenocytes; dose 5.0 μg/ml): 2505
- IL-6 (mouse splenocytes; dose 5.0 μg/ml): 9311
- IL-12 (mouse splenocytes; dose 5.0 μg/ml): 5374
- B cell proliferation, in words (CD19+ B cells; 48 h plus 8 h 3H-thymidine pulse): cause B cells to proliferate
- cpm1 (CD19+ B cells; [1]): 29280 cpm
- cpm2 (CD19+ B cells; [1]): 33430 cpm
- cpm3 (CD19+ B cells; [1]): 30056 cpm
- mean cpm (CD19+ B cells; B cells, Donor 146 mean, Experiment A): 30922 cpm
- cpm1 (CD19+ B cells; [2]): 35729 cpm
- cpm2 (CD19+ B cells; [2]): 18032 cpm
- cpm3 (CD19+ B cells; [2]): 21166 cpm
- mean cpm (CD19+ B cells; B cells, Donor 147 mean, Experiment A): 24976 cpm
- cpm1 (CD19+ B cells; [3]): 13678 cpm
- cpm2 (CD19+ B cells; [3]): 12732 cpm
- cpm3 (CD19+ B cells; [3]): 9003 cpm
- mean cpm (CD19+ B cells; B cells, donor 194 mean, Experiment B): 11804 cpm
- mean of both (CD19+ B cells; B cells, mean of Donors 146 and 147, Experiment A): 27949 cpm
- induction of serum IL-12 p40, IL-6 and TNF-α, in words (mice): induced IL-12 p40, IL-6, and TNF-α
